Assay results from patent US9060966B2, “Use of 2,5-dihydroxybenzene derivatives for the treatment of arthritis and pain” (priority 2006, dated 2015).
“Also recorded” adds a separate entry of the source.

Assays:
Leishmania major = assay: Experimental infection with Leishmania major in a mouse model (paw thickness); format: in vivo, mice
From the text: (§1) The vehicle group consisted of infected animals that received daily injections of saline (0.9% NaCl) during the same period as DHBS. Results are expressed as the mean±the standard deviation of the increases in size of the inoculated paw (right) compared to the non-inoculated paw (left) in mm obtained with a Vernier caliper each week from 0 to 10. ** indicates p<0.01 vs. the vehicle-treated group by a Student t-test. 6 animals were used for each group.
as §1, with “from” for “during”, “moment of the infection, while the control group consisted of non-infected animals.” for “same period as DHBS.”, “9. *” for “10. **”, “p<0.05” for “p<0.01”, “vehicle” for “vehicle-treated”, “7” for “6”
as §1, with “from” for “during”, “third week after the infection.” for “same period as DHBS.”, “9. *” for “10. **”, “p<0.05” for “p<0.01”, “vehicle” for “vehicle-treated”, “7” for “6”
This model is based in the massive inoculation of Leishmania promatigotes in the mouse paw pad. Under these conditions, the parasite induces a progressive inflammation correlated with the multiplication of parasites at the site of inoculation. BALB/c strain female mice that developed severe and uncontrolled injuries were used (Foote S J, Handman E. Brief Funct Genomic Proteomic, 2005). This model has been used in pharmacology to monitor the therapeutic capacity of new leishmanicide compounds and the preventive capacity of potential vaccines against leishmaniasis ((Nelson K G et al. Antimicrob Agents Chemother. 2006).
The animals were inoculated with 5×10^6 of L. major promastigotes (strain Hervás) in 50 μL of PBS into the plantar pad of the right back paw. As negative control of the infection, a group of mice inoculated with 50 μL of PBS was used. The sizes of the lesions were measured every 7 days until the animals were sacrificed (week 9) using a Vernier caliper. The thickness of the right back paw (infected) and the left back paw (uninfected) of all the animals was measured at the base of the fifth toe. The progression of the inflammation is represented as the difference in thickness between the infected and the non-infected paws. […]

infantile hemangioma = assay: Topical treatment of infantile hemangioma in a child; format: in vivo, human; details: cream 2.5%, topical twice a day, 1, 2 and 3 months, one child
From the text: Photographs of a child showing the effects of the topical treatment with a cream comprising 2,5-dihydroxybenzenesulfonic (DHBS) (2.5%) in a baby suffering infantile hemangioma.
The cream comprising 2,5-dihydroxybenzene sulfonic (2.5%) was topically applied twice a day for 3 months on the face of a child suffering from infantile hemangioma.

[1] = system: angiogenesis induced by Helicobacter pylori in the human gastric mucosa; assay: Angiogenesis induced by Helicobacter pylori in the human gastric mucosa (biopsies); format: in vivo; details: 500 mg/day oral, one week, one patient
Protocol: FIG. 5. Helicobacter pylori • A) Hematoxylin-eosin staining of the gastric mucosa of a sample obtained from a patient infected with Helicobacter pylori before treatment. The arrows and the asterisk indicate the formation of neovessels in the mucosa protruding the gastric lumen through the lost epithelial layer. • B) Hematoxylin-eosin staining of the gastric mucosa of a sample obtained from the same patient infected with Helicobacter pylori after administering 500 mg of 2,5-dihydroxybenzenesulfonate (DHBS) daily for a week.
A biopsy of the gastric mucosa was performed in a patient chronically infected with Helicobacter pylori before the oral treatment with 2,5-dihydroxybenzene sulfonic acid (Dobesilate) (500 mg/day). After a week of treatment, another biopsy was performed in the patient. Both biopsies were evaluated using hematoxylin-eosin staining. […] Microscopically, the arrows and the asterisk indicate the formation of neovessels in the mucosa protruding the gastric lumen through the lost epithelial layer. […] This example illustrates that the use of DHBS is beneficial in the treatment of gastritis and angiogenesis caused by the infection with Helicobacter pylori.

skeletal muscle lesions = assay: Oral treatment of skeletal muscle and tendon lesions in patients (MRI, function); format: in vivo, human
Protocol: A and B are, respectively, front and cross sectional magnetic resonance images (MRI) showing the breaking of the left quadriceps in a patient, immediately before treatment. The presence of a large hematoma, indicated by arrows, may be observed. C and D are, respectively, front and cross sectional MRI showing the quadriceps of the same patient after treatment with 2,5-dihydroxybenzene sulfonic acid (DHBS) (500 mg/day p.o. for two weeks). […] 1 indicates the femur and 2 indicates the femoral vessels.
A is a Magnetic Resonance Image (MRI) of a patient showing the breaking of the right arm brachial biceps one day after the lesion and immediately before the treatment.
Images show the clinical manifestation of the patient referred to in FIG. 12. Before the treatment (1 day after the lesion) a large hematoma (A) and limited flexion (B) and extension (C) of the elbow are observed.
It is a Magnetic Resonance Image (MRI) of a patient showing the breaking of left leg semitendinosus muscle 9 days after the lesion and immediately before starting the treatment.
A is a Magnetic Resonance Image (MRI) of a patient showing the Achilles tendon rupture just before being treated.
The capacity of a 2,5-dihydroxybenzene derivative, the 2,5-dihydroxybenzene sulfonic acid (DHBS) to effectively treat skeletal muscle lesions is shown herein. The efficacy is evident, not only in the images of conventional diagnosis that show the recovery of the muscular damage, but also there is a clear functional recovery of the affected limb.
The first patient's left quadriceps was broken by practicing sports. […] At that moment, the patient starts a daily oral treatment with 500 mg of 2,5-dihydroxybenzene sulfonic acid (DHBS) for two weeks. […] An observation that may be applied to the other cases that support this example.
Other patient has an hematoma and muscular breaking of the brachial biceps, as shown in the magnetic resonance image (MRI) of FIG. 12A. The hematoma can be appreciated externally (FIG. 13A) and the lesion, produced by professional practice (dancing) the day before the consultation, limits the elbow flexion (FIG. 13B) and extension (FIG. 13C).

[2] = brachial biceps breaking, 1500 mg/day p.o., 20 days, one patient
[3] = left quadriceps breaking, 500 mg/day p.o., two weeks, one patient

CC(=O)Oc1ccc(OC(C)=O)c(S(=O)(=O)[O-])c1.[K+] [DABS, potassium 2,5-diacetoxybenzene sulfonate]
size of the lesion (infected vs non-infected paw) (Leishmania major; 200 mg/kg/day i.p. from day 0 to week 9, effect from the third week post-infection): statistically significant reduction in the size of the lesion | size of the lesion (infected vs non-infected paw) (Leishmania major; 200 mg/kg/day i.p. from third week after inoculation, effect from the eighth week): significantly smaller; also recorded: Reduction in the size of the lesion

O=S(=O)(O)c1cc(O)ccc1O [DHBS, 2,5-dihydroxybenzenesulfonic acid]
hemangioma lesion appearance (infantile hemangioma): substantial recovery of the lesion | angiogenic activity in the gastric mucosa [1]: less angiogenic activity | appearance of gastric mucosa / epithelial membrane, hematoxylin-eosin [1]: apparently normal; also recorded: normal appearance | symptoms of congestion and erythema of the gastric mucosa [1]: the symptoms of congestion and erythema disappear | semitendinosus muscle lesion on MRI (skeletal muscle lesions; 1500 mg/day p.o., 11 days, started 9 days after lesion, one patient): reduced the muscular lesion; also recorded: remarkable reduction in the size of the lesion | Achilles tendon lesion on MRI (skeletal muscle lesions; 1500 mg/day p.o., two months, one patient): marked reduction of said lesion; also recorded: remarkable reduction in the size of the lesion | elbow flexion and extension (skeletal muscle lesions; [2]): recovers the functionality of the elbow flexion and extension; also recorded: have been recovered | size of the lesion and of the hematoma, brachial biceps (skeletal muscle lesions; [2]): markedly reduces the size of the lesion and of the hematoma; also recorded: remarkable reduction in the size of the lesion; also recorded: the hematoma has disappeared | quadriceps hematoma on MRI (skeletal muscle lesions; [3]): can no longer be observed; also recorded: the hematoma has disappeared | quadriceps lesion on MRI (skeletal muscle lesions; [3]): recovery of the lesion in the quadriceps | period to functional recovery and resolution vs conventional treatments (antiinflammatories) (skeletal muscle lesions; quadriceps breaking, 500 mg/day p.o., two weeks): shorter period | flexion and extension capacity of the leg (skeletal muscle lesions; quadriceps breaking, 500 mg/day p.o., two weeks, one patient): able to extend the left leg almost completely; also recorded: almost complete flexion (A) and extension (B) capacity
